Each structure is given as a SMILES string. Like-named read-outs stand apart in the source and are kept apart here.

This assay has as its target T1, GABA A α5 (α5β3γ2) (Homo sapiens, UniProt P18507+P31644).
T1 construct: expressed in transfected cells; host or cells: HEK293, transiently transfected; membrane preparation
Description: [3H]flumazenil competition binding, human GABA A α5 receptor. A digest of the protocol: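 Competition with [3H]flumazenil at membranes from HEK293 cells transiently expressing human α5β3γ2, in Krebs-tris buffer pH 7.5. Equilibrium 1 hour at 4° C, filtration with ice-cold 50 mM Tris wash, scintillation counting. Ki values are means of two determinations.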

Setting [1] is: human receptor α5β3γ2 transiently transfected in HEK293 cells, competition for [3H]flumazenil 0.5 nM, 1 hour at 4° C., means of two determinations, read-out: hKi GABA A α5.

In the case of `CCCCc1noc(C)c1/C=C\c1nc(C)c(C(=O)NCCO)s1` [Example 101, 2-[(Z)-2-(3-Butyl-5-methyl-isoxazol-4-yl)-vinyl]-4-methyl-thiazole-5-carboxylic acid (2-hydroxy-ethyl)-amide], under setting [1], the Ki came to 28.8 nM.

On to `Cc1nc(CCc2c(-c3ccccc3)noc2C)sc1C(=O)NC1CCOCC1` [Example 5, 4-Methyl-2-[2-(5-methyl-3-phenyl-isoxazol-4-yl)-ethyl]-thiazole-5-carboxylic acid (tetrahydro-pyran-4-yl)-amide], for which, under setting [1], the Ki turned out to be 8.2 nM.

As for `Cc1onc(-c2ccccc2)c1/C=C/c1ncc(C(=O)NC(C)C)s1` [Example 65, 2-[(E)-2-(5-Methyl-3-phenyl-isoxazol-4-yl)-vinyl]-thiazole-5-carboxylic acid isoprop-ylamide], the Ki under setting [1] is 1.3 nM.

For the compound `CCCCc1noc(C)c1/C=C/c1nc(C)c(C(=O)NC)s1` [Example 122, 2-[(E)-2-(3-Butyl-5-methyl-isoxazol-4-yl)-vinyl]-4-methyl-thiazole-5-carboxylic acid methylamide], the Ki under setting [1] came out at 5.7 nM.

`Cc1nc(CCc2c(-c3ccccc3)noc2C)sc1C(N)=O` [Example 6, 4-Methyl-2-[2-(5-methyl-3-phenyl-isoxazol-4-yl)-ethyl]thiazole-5-carboxylic acid amide]: under setting [1], the Ki is 33.7 nM.

Consider `Cc1onc(-c2ccccn2)c1CCc1ncc(C(=O)NC2CCOCC2)s1` [Example 24, 2-[2-(5-Methyl-3-pyridin-2-yl-isoxazol-4-yl)-ethyl]-thiazole-5-carboxylic acid (tetra-hydro-pyran-4-yl)-amide], for which, under setting [1], the Ki amounted to 18.8 nM.

`Cc1onc(-c2ccccn2)c1CCc1ncc(C(=O)NCC2CC2)s1` [Example 26, 2-[2-(5-Methyl-3-pyridin-2-yl-isoxazol-4-yl)-ethyl]-thiazole-5-carboxylic acid cyclo-propylmethyl-amide]: the Ki under setting [1] turned out to be 34.7 nM.

On to `CCCCc1noc(C)c1/C=C/c1nc(C)c(C(=O)NN(C)C)s1` [Example 102, 2-[(E)-2-(3-Butyl-5-methyl-isoxazol-4-yl)-vinyl]-4-methyl-thiazole-5-carboxylic acid N′,N′-dimethyl-hydrazide], for which the Ki under setting [1] worked out at 4.4 nM.

As to `CCCCc1noc(C)c1/C=C/c1nc(C)c(C(=O)NCCO)s1` [Example 95, 2-[(E)-2-(3-Butyl-5-methyl-isoxazol-4-yl)-vinyl]-4-methyl-thiazole-5-carboxylic acid (2-hydroxy-ethyl)-amide], the Ki under setting [1] is 2.2 nM.

Take `CCCCc1noc(C)c1/C=C/c1nc(C)c(C(=O)NC(CC)CO)s1` (racemic) [Example 104, Rac-2-[(E)-2-(3-Butyl-5-methyl-isoxazol-4-yl)-vinyl]-4-methyl-thiazole-5-carboxylic acid (1-hydroxymethyl-propyl)-amide]: under setting [1], the Ki came to 3.1 nM.

Take `CCCCc1noc(C)c1COc1ncc(C(=O)NC(C)C)s1` [Example 132, 2-(3-Butyl-5-methyl-isoxazol-4-ylmethoxy)-thiazole-5-carboxylic acid isopropylamide]: the Ki under setting [1] was found to be 10.2 nM.

For `Cc1onc(-c2ccc(F)cn2)c1/C=C/c1ncc(C(=O)NC(C)(C)CO)s1` [Example 80, 2-{(E)-2-[3-(5-Fluoro-pyridin-2-yl)-5-methyl-isoxazol-4-yl]-vinyl}-thiazole-5-carboxylic acid (2-hydroxy-1,1-dimethyl-ethyl)-amide], under setting [1], the Ki turned out to be 17.4 nM.

Regarding `Cc1nc(/C=C/c2conc2-c2ccc(F)cn2)sc1C(=O)NC1CC1` [Example 91, 2-{(E)-2-[3-(5-Fluoro-pyridin-2-yl)-isoxazol-4-yl]vinyl}-4-methyl-thiazole-5-carboxylic acid cyclopropylamide], under setting [1], the Ki came to 35.3 nM.

With `Cc1onc(-c2ccc(F)cn2)c1/C=C/c1ncc(C(=O)NCCO)s1` [Example 85, 2-{(E)-2-[3-(5-Fluoro-pyridin-2-yl)-5-methyl-isoxazol-4-yl]-vinyl}-thiazole-5-carboxylic acid (2-hydroxy-ethyl)-amide], the Ki under setting [1] came out at 5.1 nM.

Take `Cc1nc(CCc2c(-c3ccccc3)noc2C)sc1C(=O)NC1CCOC1` (stereo in doubt) [Example 2, (S)-4-Methyl-2-[2-(5-methyl-3-phenyl-isoxazol-4-yl)-ethyl]-thiazole-5-carboxylic acid (tetrahydro-furan-3-yl)-amide]: the Ki under setting [1] is 10.9 nM.

For `CCCCc1noc(C)c1/C=C/c1nc(C)c(C(=O)N[C@H](C)C(F)(F)F)s1` [Example 107, 2-[(E)-2-(3-Butyl-5-methyl-isoxazol-4-yl)-vinyl]-4-methyl-thiazole-5-carboxylic acid ((R)-2,2,2-trifluoro-1-methyl-ethyl)-amide], the Ki under setting [1] is 2.6 nM.

As to `Cc1onc(-c2ccccc2)c1/C=C/c1ncc(C(=O)NC(C)CO)s1` (stereo not drawn) [Example 66, 2-[(E)-2-(5-Methyl-3-phenyl-isoxazol-4-yl)-vinyl]-thiazole-5-carboxylic acid (2-hydroxy-1-methyl-ethyl)-amide], the Ki under setting [1] was found to be 1.8 nM.

For the compound `Cc1onc(-c2ccc(F)cn2)c1/C=C/c1ncc(C(=O)NCC(F)(F)F)s1` [Example 84, 2-{(E)-2-[3-(5-Fluoro-pyridin-2-yl)-5-methyl-isoxazol-4-yl]-vinyl}-thiazole-5-carboxylic acid (2,2,2-trifluoro-ethyl)-amide], the Ki was 4.1 nM.

As for `Cc1onc(-c2ccc(F)cn2)c1CCc1ncc(C(=O)NCC2CC2)s1` [Example 43, 2-{2-[3-(5-Fluoro-pyridin-2-yl)-5-methyl-isoxazol-4-yl]-ethyl}-thiazole-5-carboxylic acid cyclopropylmethyl-amide], the Ki under setting [1] was determined as 18.6 nM.

As to `Cc1onc(-c2ccccc2)c1/C=C/c1ncc(C(=O)NC2CCOCC2)s1` [Example 63, 2-[(E)-2-(5-Methyl-3-phenyl-isoxazol-4-yl)-vinyl]-thiazole-5-carboxylic acid (tetra-hydro-pyran-4-yl)-amide], under setting [1], the Ki is 1.2 nM.

Take `CCCCc1noc(C)c1/C=C/c1nc(C)c(C(=O)NC(CO)CO)s1` [Example 98, 2-[(E)-2-(3-Butyl-5-methyl-isoxazol-4-yl)-vinyl]-4-methyl-thiazole-5-carboxylic acid (2-hydroxy-1-hydroxymethyl-ethyl)-amide]: under setting [1], the Ki amounted to 1.9 nM.

In the case of `Cc1onc(-c2ccccc2)c1CNc1ncc(C(=O)NC2CCOCC2)s1` [Example 136, 2-[(5-Methyl-3-phenyl-isoxazol-4-ylmethyl)-amino]-thiazole-5-carboxylic acid (tetra-hydro-pyran-4-yl)-amide], under setting [1], the Ki amounted to 27.5 nM.

As for `CCCCc1noc(C)c1/C=C/c1nc(C)c(C(=O)N[C@H](CC)CO)s1` [Example 105, 2-[(E)-2-(3-Butyl-5-methyl-isoxazol-4-yl)-vinyl]-4-methyl-thiazole-5-carboxylic acid ((R)-1-hydroxymethyl-propyl)-amide], the Ki under setting [1] is 7.9 nM.

In the case of `CCCCc1noc(C)c1/C=C/c1nc(C)c(C(=O)N[C@H]2CCC[C@@H]2O)s1` [Example 111, 2-[(E)-2-(3-Butyl-5-methyl-isoxazol-4-yl)-vinyl]-4-methyl-thiazole-5-carboxylic acid ((1S,2S)-2-hydroxy-cyclopentyl)-amide], the Ki under setting [1] was 5.5 nM.

Consider `CCCCc1noc(C)c1CCc1nc(C)c(C(=O)N[C@H](C)CO)s1` [Example 55, 2-[2-(3-Butyl-5-methyl-isoxazol-4-yl)-ethyl]-4-methyl-thiazole-5-carboxylic acid ((R)-2-hydroxy-1-methyl-ethyl)-amide], for which the Ki under setting [1] turned out to be 35.6 nM.

For the compound `CCCCc1noc(C)c1CCc1nc(C)c(C(=O)NCC(C)O)s1` (stereo not drawn) [Example 56, 2-[2-(3-Butyl-5-methyl-isoxazol-4-yl)-ethyl]-4-methyl-thiazole-5-carboxylic acid (2-hydroxy-propyl)-amide], the Ki under setting [1] amounted to 16.9 nM.

As to `CNC(=O)c1sc(CCc2c(-c3ccccn3)noc2C)nc1C` [Example 16, 4-Methyl-2-[2-(5-methyl-3-pyridin-2-yl-isoxazol-4-yl)-ethyl]-thiazole-5-carboxylic acid methylamide], under setting [1], the Ki was determined as 21.3 nM.

Consider `Cc1nc(CCc2c(-c3ccc(F)cn3)noc2C)sc1C(=O)NCC(F)(F)F` [Example 35, 2-{2-[3-(5-Fluoro-pyridin-2-yl)-5-methyl-isoxazol-4-yl]ethyl}-4-methyl-thiazole-5-carboxylic acid (2,2,2-trifluoro-ethyl)-amide], for which the Ki under setting [1] came out at 6.6 nM.

With `Cc1onc(-c2ccccc2)c1COc1ncc(C(=O)NCCO)s1` [Example 130, 2-(5-Methyl-3-phenyl-isoxazol-4-ylmethoxy)-thiazole-5-carboxylic acid (2-hydroxy-ethyl)-amide], under setting [1], the Ki turned out to be 5.4 nM.

Consider `CCCCc1noc(C)c1CCc1ncc(C(=O)NC(C)CO)s1` (stereo not drawn) [Example 58, 2-[2-(3-Butyl-5-methyl-isoxazol-4-yl)-ethyl]-thiazole-5-carboxylic acid (2-hydroxy-1-methyl-ethyl)-amide], for which the Ki under setting [1] turned out to be 50.9 nM.

With `CCCCc1noc(C)c1/C=C/c1nc(C)c(C(=O)N[C@@H](CC)CO)s1` [Example 106, 2-[(E)-2-(3-Butyl-5-methyl-isoxazol-4-yl)-vinyl]-4-methyl-thiazole-5-carboxylic acid ((S)-1-hydroxymethyl-propyl)-amide], the Ki under setting [1] was 2.1 nM.

For the compound `CCCCc1noc(C)c1/C=C/c1nc(C)c(C(=O)NC2CC2)s1` [Example 113, 2-[(E)-2-(3-Butyl-5-methyl-isoxazol-4-yl)-vinyl]-4-methyl-thiazole-5-carboxylic acid cyclopropylamide], the Ki under setting [1] came out at 5.1 nM.

Consider `CCCCc1noc(C)c1/C=C/c1nc(C)c(C(=O)NC2CCC2)s1` [Example 115, 2-[(E)-2-(3-Butyl-5-methyl-isoxazol-4-yl)-vinyl]-4-methyl-thiazole-5-carboxylic acid cyclobutylamide], for which the Ki under setting [1] is 4.7 nM.
